Assay results taken from patent US6720346B2, “Thiazole benzamide derivatives and pharmaceutical compositions for inhibiting cell proliferation” (Agouron Pharmaceuticals, Inc., priority 2001, dated 2004).

What was measured:
HCT-116 cell line = assay: Inhibition of cell growth, MTT tetrazolium salt assay; type: cell-based
Protocol: Inhibition of cell growth was measured using the tetrazolium salt assay, which is based on the ability of viable cells to reduce 3-(4,5-dimethylthiazol-2-yl)-2,5-[2H]-diphenyltetrazolium bromide (MTT) to formazan (Mossman, Journal of Immunological Methods, 65, (1983), pp. 55-58). The water-insoluble purple formazan product was then detected spectrophotometrically. The HCT-116 cell line was used as a representative cancer cell line and grown in 96-well plates. Cells were plated in McCoy's 5A Medium at a volume of 135 μl/well. Plates were incubated for four hours before addition of inhibitor compounds. Different concentrations of inhibitor compounds were added in 0.5% (v/v) dimethylsulfoxide (15 μL/well), and cells were incubated at 37° C. (5% CO2) for three to five days. At the end of the incubation, MTT was added to a final concentration of 0.2 mg/mL, and cells were incubated for 4 hours more at 37° C. After centrifugation of the plates and removal of medium, the absorbance of the formazan (solubilized in dimethylsulfoxide) was measured at 540 nm. The concentration of inhibitor compound causing 50% (IC50) or 90% ([…]) inhibition of growth was determined from the linear portion of a semi-log plot of inhibitor concentration versus percent inhibition. All results were compared to control cells treated only with 0.5% (v/v) dimethylsulfoxide.

CDK2/cyclin A = target: T1, CDK2/cyclin A (Homo sapiens, UniProt P24941); assay: Inhibition of CDK2/cyclin A retinoblastoma kinase activity (Ki; % inhibition); type: biochemical
T1 construct: made in house; host or cells: CDK2: insect cells (baculovirus); cyclin A: E. coli
Protocol: (§1) Cyclin-dependent kinase activity was measured by quantifying the enzyme-catalyzed, time-dependent incorporation of radioactive phosphate from [^32P]ATP or [^33P]ATP into a protein substrate. Unless noted otherwise, assays were performed in 96-well plates in a total volume of 50 μL, in the presence of 10 mM HEPES (N-[2-hydroxyethyl]piperazine-N′-[2-ethanesulfonic acid]) (pH 7.4), 10 mM MgCl2, 25 μM adenosine triphosphate (ATP), 1 mg/mL ovalbumin, 5 μg/mL leupeptin, 1 mM dithiothreitol, 10 mM β-glycerophosphate, 0.1 mM sodium vanadate, 1 mM sodium fluoride, 2.5 mM ethylene glycol-bis(β-aminoethyl ether)-N,N,N′N′-tetraacetic acid (EGTA), 2% (v/v) dimethylsulfoxide, and 0.03-0.4 μCi [^32/33P]ATP per reaction. Reactions were initiated with enzyme, incubated at 30° C., and terminated after 20 minutes by the addition of ethylenediaminetetraacetic acid (EDTA) to 250 mM. The phosphorylated substrate was then captured on a nitrocellulose or phosphocellulose membrane using a 96-well filtration manifold, and unincorporated radioactivity was removed by repeated washing with 0.85% phosphoric acid. Radioactivity was quantified by exposing the dried membranes to a phosphorimager.
(§2) Compounds from combinatorial libraries were screened from 96-well plates for % inhibition of CDK activity at 30 nM theoretical compound concentration. Inhibition was measured relative to control wells that contained all reaction components including 2% (v/v) DMSO but no compound, after subtraction of background radioactivity measured in the absence of enzyme. Apparent Ki values of discrete compounds were measured by assaying enzyme activity in the presence of different inhibitor compound concentrations and subtracting the background radioactivity measured in the absence of enzyme. The kinetic parameters (kcat, Km for ATP) were measured for each enzyme under the usual assay conditions by determining the dependence of initial rates on ATP concentration. Inhibition data were fit to an equation for competitive inhibition using Kaleidagraph (Synergy Software), or were fit to an equation for competitive tight-binding inhibition using the software KineTic (BioKin, Ltd.).
CDK2 was purified using published methodology (Rosenblatt et al., “Purification and Crystallization of Human Cyclin-dependent Kinase 2,” J. Mol. Biol., 230, 1993, pp. 1317-1319) from insect cells that had been infected with a baculovirus expression vector. […] A complex of CDK2 and proteolyzed cyclin A was prepared and purified by gel filtration. The substrate for this assay was the same Rb substrate fragment used for the CDK4 assays, and the methodology of the CDK2/delta cyclin A and the CDK4/delta cyclin D3 assays was essentially the same, except that CDK2 was present at 10 nM or 19 nM. The duration of the assay was 60 or 75 minutes, during which the time-dependence of product formation was linear and initial rate conditions were met.

human CDK4/cyclin D3 = target: T2, human CDK4/cyclin D3 (Homo sapiens, UniProt P11802); assay: Inhibition of CDK4/cyclin D retinoblastoma kinase activity (Ki; % inhibition); type: biochemical
T2 construct: made in house; host or cells: insect cells co-infected with baculovirus vectors
T2 sequence (P11802 whole entry): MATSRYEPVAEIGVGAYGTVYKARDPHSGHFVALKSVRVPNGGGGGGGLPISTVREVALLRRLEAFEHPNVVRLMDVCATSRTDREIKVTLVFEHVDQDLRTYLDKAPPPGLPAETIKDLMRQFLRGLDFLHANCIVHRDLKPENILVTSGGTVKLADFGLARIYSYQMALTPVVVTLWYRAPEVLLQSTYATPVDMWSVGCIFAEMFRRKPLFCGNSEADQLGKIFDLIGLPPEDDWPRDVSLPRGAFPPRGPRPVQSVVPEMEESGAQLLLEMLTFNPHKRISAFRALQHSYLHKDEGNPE
T2 sequence (P30281 1-264 partner limits assumed): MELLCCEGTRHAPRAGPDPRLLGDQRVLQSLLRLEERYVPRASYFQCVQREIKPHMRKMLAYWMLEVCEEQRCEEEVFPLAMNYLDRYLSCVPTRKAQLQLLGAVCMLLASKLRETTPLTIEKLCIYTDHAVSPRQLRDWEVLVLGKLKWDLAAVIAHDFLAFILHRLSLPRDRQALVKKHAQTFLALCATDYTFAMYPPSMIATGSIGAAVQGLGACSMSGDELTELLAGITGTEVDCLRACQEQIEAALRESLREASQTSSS
Protocol: as §1, §2
A complex of human CDK4 and genetically truncated (1-264) cyclin D3 was purified using traditional biochemical chromatographic techniques from insect cells that had been co-infected with the corresponding baculovirus expression vectors (see e.g., Meijer and Kim, “Chemical Inhibitors of Cyclin-Dependent Kinases,” Methods in Enzymol., 283 (1997), pp. 113-128.). The enzyme complex (5 nM) was assayed with 0.3-0.5 μg of purified recombinant retinoblastoma protein fragment (Rb) as a substrate. The engineered Rb fragment (residues 386-928 of the native retinoblastoma protein; 62.3 kDa) contains the majority of the phosphorylation sites found in the native 106-kDa protein, as well as a tag of six histidine residues for ease of purification. Phosphorylated Rb substrate was captured by microfiltration on a nitrocellulose membrane and quantified using a phosphorimager as described above. For measurement of tight-binding inhibitors, the assay duration was extended to 60 minutes, during which the time-dependence of product formation was linear and initial rate conditions were met.

[1] = HCT-116 cells, 0.25 μM compound

SMILES	HCT-116 % Inhibition at 0.1 μM (HCT-116 cell line; HCT-116 cells, 0.1 μM compound) [%]	HCT-116 % Inhibition at 0.25 μM (HCT-116 cell line; [1]) [%]	CDK2 % Inhibition at 0.03 μM (CDK2/cyclin A; 0.03 μM compound) [%]	CDK4 % Inhibition at 0.03 μM (human CDK4/cyclin D3; 0.03 μM compound) [%]	HCT-116 % Inhibition at 0.25 μM (HCT-116 cell line; HCT-116, at 0.25 μM) [%]	CDK2 % Inhibition at 0.03 μM (CDK2/cyclin A; at 0.03 μM) [%]	CDK4 % Inhibition at 0.03 μM (human CDK4/cyclin D3; at 0.03 μM) [%]	further results
Cc1cccc(NC(=O)c2ccc(Nc3nc(N)c(C(=O)c4c(F)cccc4F)s3)cc2)c1 [Example G280]	7	70	−7	9				
COc1ccccc1CCNC(=O)c1ccc(Nc2nc(N)c(C(=O)c3c(F)cccc3F)s2)cc1 [Example G185]					49	7	20	HCT-116 % Inhibition at 0.1 μM (HCT-116 cell line; HCT-116, at 0.1 μM): 10%
Nc1nc(Nc2ccc(C(=O)Nc3ccon3)cc2)sc1C(=O)c1c(F)cccc1F [Example G213]	16	49	−1	9				
CC(NC(=O)c1ccc(Nc2nc(N)c(C(=O)c3c(F)cccc3F)s2)cc1)C1CCCCC1 (centres unmarked) [Example G388]								HCT-116 % Inhibition at 0.1 μM (HCT-116 cell line; HCT-116 cells, 0.1 μM compound, 0.1 µM): 9%; HCT-116 % Inhibition at 0.25 μM (HCT-116 cell line; HCT-116 cells, 0.25 μM compound, 0.25 µM): 45%; CDK2 % Inhibition at 0.03 μM (CDK2/cyclin A; 0.03 μM compound, 0.03 µM): 3%; CDK4 % Inhibition at 0.03 μM (human CDK4/cyclin D3; 0.03 μM compound, 0.03 µM): 8%
CCN1CC(NC(=O)c2ccc(Nc3nc(N)c(C(=O)c4c(F)cccc4F)s3)cc2)CN1CC [Example G150]					57	15	25	HCT-116 % Inhibition at 0.1 μM (HCT-116 cell line; HCT-116, at 0.1 μM): 0%
CC(CO)NC(=O)c1ccc(Nc2nc(N)c(C(=O)c3c(F)cccc3F)s2)cc1 (centres unmarked) [Example G109]						6	22	HCT-116 % Inhibition at 0.1 μM (HCT-116 cell line; HCT-116, at 0.1 μM, 0.1 µM): 0%; HCT-116 % Inhibition at 0.25 μM (HCT-116 cell line; HCT-116, at 0.25 μM, 0.25 µM): 54%
Nc1nc(Nc2ccc(C(=O)NCC(O)CO)cc2)sc1C(=O)c1c(F)cccc1F (centres unmarked) [Example G279]	2	52	−2	17				
Nc1nc(Nc2ccc(C(=O)N3CCN(c4ccncc4)CC3)cc2)sc1C(=O)c1c(F)cccc1F [Example G311]	5	43	−1	46				
Nc1nc(Nc2ccc(C(=O)Nc3ccc(Cl)nc3)cc2)sc1C(=O)c1c(F)cccc1F [Example G281]	6	63	−9	12				
Cc1cccc(N2CCN(C(=O)c3ccc(Nc4nc(N)c(C(=O)c5c(F)cccc5F)s4)cc3)CC2C)c1 (centres unmarked) [Example G308]	5	60	−23	5				
CSc1ccccc1NC(=O)c1ccc(Nc2nc(N)c(C(=O)c3c(F)cccc3F)s2)cc1 [Example G31]					75	4	4	
C[C@H](NC(=O)c1ccc(Nc2nc(N)c(C(=O)c3c(F)cccc3F)s2)cc1)c1ccccc1 [Example G167]					53	19	29	HCT-116 % Inhibition at 0.1 μM (HCT-116 cell line; HCT-116, at 0.1 μM): 26%
